Measured values as given in patent US10537103B2, “Antibacterial composition containing an isomer mixture of monosaccharide alkyl monoacetals or monoethers” (TEREOS STARCH & SWEETENERS BELGIUM, priority 2014, dated 2020).
Converted amounts (≈) assume the structure as drawn.

Assays:
[1] = tested on: Gram-positive bacteria (L. monocytogenes, E. faecalis, S. aureus); experiment: MIC / antimicrobial activity stated for the Gram-positive strains studied together; format: cell-based; details: concentrations less than or equal to 4 mM
Experimental: (§1) The bacteriostatic properties of the derivatives are evaluated by measuring their minimum inhibitory concentration (MIC) on the bacteria tested. These measurements are made using the 96-well microplate microdilution method according to the conditions defined below.
(§2) The minimum inhibitory concentrations (MIC) are tested on Gram-positive bacterial strains according to the recommendations of the “Clinical Laboratory Standards Institute” (Clinical-Laboratory-Standards-Institute, 6th ed. Approved standard M100-S17. CLSI, Wayne, Pa., 2007).
(§3) The Gram-positive bacteria studied are as follows: L. monocytogenes (CIP 103575), E. faecalis (ATCC® 29212™) and S. aureus (ATCC® 292213™).
(§4) The cultures studied, freshly isolated (after incubation on a blood agar at 37° C. for 18 h), are taken up in sterile water (10 mL) until obtaining a 0.5 McFarland (Mc) suspension i.e. 1 to 2×10^8 CFU (bacteria)/cm^3. The bacterial suspension was then diluted to obtain a final concentration of 5×10^5 CFU/cm^3.
Each well contains an identical quantity of Mueller-Hinton medium (a rich medium for bacterial culture) and bacteria with final 5×10^5 CFU/cm^3. […]
Tests have been conducted on Gram-positive bacteria with methyl glucopyranoside derivatives. […] Because precipitates formed in the solutions, the effect of these methyl glucopyranoside C10 and C12 acetals was not able to be evaluated. […]

[2] = Water solubility of test solutions; format: physicochemical; details: solutions diluted in water, 2.5% m ethanol; precipitates formed
Experimental: (§5) Tests have been conducted on Gram-positive bacteria with methyl glucopyranoside derivatives. […] After sterilization the solutions are diluted in water. […] Because precipitates formed in the solutions, the effect of these methyl glucopyranoside C10 and C12 acetals was not able to be evaluated. The results obtained for antimicrobial tests on the 3 bacterial strains L. monocytogenes (CIP 103575), E. faecalis (ATCC® 29212) and S. aureus (ATCC® […]) are summarized in Table 1.

S. aureus = details: cited from earlier work
L. monocytogenes = details: cited from earlier work
E. faecalis (ATCC 29212) = experiment: Minimum inhibitory concentration (MIC), 96-well microplate microdilution; format: cell-based; details: 18 h at 37° C.; for MIC: Enterococcus faecalis, ATCC29212, 18 h
Experimental: as §1, §2, §3, §4
(§6) Each well contains an identical quantity of Mueller-Hinton medium (a rich medium for bacterial culture) and bacteria with final 5×10^5 CFU/cm^3.
(§7) The test compounds of interest are solubilized in 2.5% m of ethanol before being diluted to different concentrations two by two.
(§8) On the multiwell plate, a first series has been planned comprising the culture medium without the test compound of interest. It corresponds to the growth control (control well). These controls serve as reference for comparing bacterial growth with that of the subsequent wells comprising different concentrations of the test compound of interest. The second series of wells comprises the mother solution for the test compound of interest for a concentration in the wells of 4 mM. Each series of wells was diluted two by two until the last series for a final concentration of 0.003 mM. Each concentration is duplicated in the same plate. The plate is incubated for 18 h at 37° C. […] If there is antibacterial activity, the bacterial growth is inhibited, which means that no turbidity or bacterial residue is present.
as §5
(§9) The sorbitan C5, C6, C8, C10 and C12 acetals and ethers were then tested under the same conditions as previously and on the same bacterial strains (see example 5).

[3] = tested on: L. monocytogenes (CIP 103575); experiment: as above; format: cell-based; details: Listeria monocytogenes, CIP103575, 18 h at 37° C.
Experimental: as §1, §2, §3, §4, §6, §7, §8, §5, §9

S. aureus (ATCC 292213) = experiment: as above; format: cell-based; details: Staphylococcus aureus, ATCC292213, 18 h at 37° C.
Experimental: as §1, §2, §3, §4, §6, §7, §8, §5, §9

Row | SMILES | melting point [°C] | MIC (E. faecalis (ATCC 29212)) [mM] | MIC [3] [mM] | MIC (S. aureus (ATCC 292213)) [mM] | other results
1 | CCCCCCCCCCCC=O [dodecanal] |  |  |  |  | antimicrobial activity on the different bacterial strains [1]: no antimicrobial activity
2 | CCCCCCCCCC1OCC2O[C@H](OC)C(O)C(O)[C@@H]2O1 (stereo partly drawn) [Compound 1d, Methyl 4,6-O-Decylidene α-D-glucopyranoside] | 72 |  |  |  | water solubility [2]: low water solubility
3 | CCCCCCCCCCCC(=O)OCC(O)CO (centres unmarked) [ML, monolaurine] |  |  |  |  | Minimum inhibitory concentration (MIC) S. aureus, compounds known in the prior art (S. aureus): 0.04 mM (≈ 11 µg/mL); Minimum inhibitory concentration (MIC) L. monocytogenes, compounds known in the prior art (L. monocytogenes): 0.04 mM (≈ 11 µg/mL)
4 | CCCCCCCCCCCC1OCC2O[C@H](OC)C(O)C(O)[C@H]2O1 (stereo partly drawn) [Compound 1h, Methyl 4,6-O-Dodecylidene α-D-galactopyranoside] | 115 |  |  |  | 
5 | CCCCC1OCC2O[C@H](OC)C(O)C(O)[C@@H]2O1 (stereo partly drawn) [Compound 1a, Methyl 4,6-O-pentylidene α-D-glucopyranoside] |  | > 4 | > 4 | > 4 | 
6 | CCCCCCCC1OCC2O[C@H](OC)C(O)C(O)[C@@H]2O1 (stereo partly drawn) [Compound 1c, Methyl 4,6-O-Octylidene α-D-glucopyranoside] |  | 2 (≈ 609 µg/mL) | 2 (≈ 609 µg/mL) | 4 (≈ 1220 µg/mL) | Minimum inhibitory concentration (MIC) E. faecalis (E. faecalis (ATCC 29212); listed as AcC8 MeGlu): 4 mM (≈ 1220 µg/mL)
7 | CCCCCCCCCCCC1OCC2O[C@H](OC)C(O)C(O)[C@@H]2O1 (stereo partly drawn) [Compound 1g, Methyl 4,6-O-Dodecylidene α-D-mannopyranoside] | 104 |  |  |  | 
8 | CCCCCC1OCC2O[C@H](OC)C(O)C(O)[C@@H]2O1 (stereo partly drawn) [Compound 1b, Methyl 4,6-O-Hexylidene α-D-glucopyranoside] |  | > 4 | > 4 | > 4 | 
